Assay results reported in patent publication US20260001889A1, “COMPOSITIONS USEFUL FOR MODULATING SPLICING” (Skyhawk Therapeutics, Inc., priority 2022, published 2026).

How the values were obtained:
[1] = test system: ATXN3 transcripts containing exon 4; test: ATXN3 Quantitative Splicing Assay (qPCR, E4E5 primers/probe); assay type: cell-based; conditions: Homo sapiens, SK-N-MC cells, compounds for 24 h
How it was run: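 Exon 4-containing ATXN3 transcripts are quantified by TaqMan qPCR (E4E5 primers/probe) on cell-lysate cDNA, with total ATXN3 from the E8E9 set. Source cells: human neuroblastoma SK-N-MC, exposed for 24 h to compound at 30 μM down to 0.6 nM.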

total ATXN3 protein = test: ATXN3 Total Protein Assay (Mesoscale Discovery, SK-N-MC cells); assay type: cell-based, Human; conditions: incubation for 48 hours, MSD assay
How it was run: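 Readout: MSD electrochemiluminescence immunoassay of lysates, calibrated with recombinant ATXN3 and using mouse/rabbit anti-ATXN3 antibody pair. Cells (SK-N-MC, human) were exposed for 48 h to compound doses between 30 μM and 0.6 nM.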

ATXN3-HiBiT protein = test: ATXN3 Total Protein Assay (Kelly-ATXN3-HiBiT luminescence); assay type: cell-based; conditions: Kelly-ATXN3-HiBiT cells, 48 h after addition of compound
How it was run: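 Endogenous ATXN3-HiBiT protein in knock-in Kelly neuroblastoma cells measured by lytic HiBiT luminescence 48 h post-compound (added 24 h after seeding 2000 cells/well). Values are fold changes relative to DMSO, with viability from a parallel CellTiter-Glo plate.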

SMILES | IC50 [1] | IC50 (total ATXN3 protein) | EC50 (ATXN3-HiBiT protein)
C/C=C/c1c(C[C@H](C)N)oc2c(NCc3cccs3)cc(Cl)nc12 [Compound 253, 3-[(E)-1-propenyl]-2-[(S)-2-aminopropyl]-5-chloro-7-thenylamino-1-oxa-4-azaindene] | 0.501 to 5 µM | 0.501 to 5 µM | 10 to 40 µM
C/C=C\c1c(C[C@H](C)N)oc2c(NCc3cccs3)cc(Cl)nc12 [Compound 254, 2-[(S)-2-aminopropyl]-3-[(Z)-1-propenyl]-5-chloro-7-thenylamino-1-oxa-4-azaindene] | 0.501 to 5 µM | 0.501 to 5 µM | 0.501 to 5 µM
C[C@H](N)Cc1oc2c(NCc3cccs3)cc(Cl)nc2c1-c1cccs1 [Compound 256, 2-[(S)-2-aminopropyl]-5-chloro-7-thenylamino-3-(2-thienyl)-1-oxa-4-azaindene] | 10 to 40 µM | 5 to 10 µM | 10 to 40 µM
C[C@H](N)Cc1oc2c(NCc3cccs3)cc(Cl)nc2c1-c1nccs1 [Compound 257, 2-[(S)-2-aminopropyl]-5-chloro-7-thenylamino-3-(1,3-thiazol-2-yl)-1-oxa-4-azaindene] | 10 to 40 µM | 10 to 40 µM | 10 to 40 µM
C[C@H](N)Cc1oc2c(NCc3cccs3)cc(Cl)nc2c1-c1ccsc1 [Compound 260, 2-[(S)-2-aminopropyl]-5-chloro-7-thenylamino-3-(3-thienyl)-1-oxa-4-azaindene] | 10 to 40 µM | 0.501 to 5 µM | 10 to 40 µM
C[C@H](N)Cc1oc2c(NCc3cccs3)cc(Cl)nc2c1-c1ncco1 [Compound 262, 2-[(S)-2-aminopropyl]-5-chloro-3-(1,3-oxazol-2-yl)-7-thenylamino-1-oxa-4-azaindene] | 0.101 to 0.5 µM | 0.101 to 0.5 µM | 0.101 to 0.5 µM
C[C@H](N)Cc1oc2c(NCc3cccs3)cc(Cl)nc2c1-c1cscn1 [Compound 263, 2-[(S)-2-aminopropyl]-5-chloro-7-thenylamino-3-(1,3-thiazol-4-yl)-1-oxa-4-azaindene] | 0.501 to 5 µM | 0.501 to 5 µM | 0.501 to 5 µM
C[C@H](N)Cc1oc2c(NCc3cccs3)c(F)c(Cl)nc2c1Br [Compound 275, 2-[(S)-2-aminopropyl]-3-bromo-5-chloro-6-fluoro-7-thenylamino-1-oxa-4-azaindene] | 0.501 to 5 µM | 0.501 to 5 µM | 0.501 to 5 µM
C#Cc1c(C[C@H](C)N)oc2c(NCc3cccs3)c(F)c(Cl)nc12 [Compound 276, 2-[(S)-2-aminopropyl]-5-chloro-3-ethynyl-6-fluoro-7-thenylamino-1-oxa-4-azaindene] | 0.501 to 5 µM | 0.501 to 5 µM | 0.501 to 5 µM
C[C@H](F)[C@H](N)Cc1oc2c(NCc3cccs3)c(F)c(Cl)nc2c1Br [Compound 277, 2-[(2R,3S)-2-amino-3-fluorobutyl]-3-bromo-5-chloro-6-fluoro-7-thenylamino-1-oxa-4-azaindene] | 0.501 to 5 µM | 0.501 to 5 µM | 0.501 to 5 µM
[2H][C@](N)(COC)Cc1oc2c(NCc3cccs3)cc(Cl)nc2c1Br [Compound 285, 2-[(R)-2-amino-3-methoxy(2-^2H)propyl]-3-bromo-5-chloro-7-thenylamino-1-oxa-4-azaindene] | 0.101 to 0.5 µM | 1e-05 to 0.1 µM | 1e-05 to 0.1 µM
C[C@H](N)Cc1oc2c(NCc3cccs3)cc(C(N)=O)nc2c1Br [Compound 288, 2-[(S)-2-aminopropyl]-3-bromo-7-thenylamino-1-oxa-4-aza-5-indenecarboxamide] | 10 to 40 µM | 10 to 40 µM | 10 to 40 µM
CC#C[C@@H](Cc1oc2c(NCc3cccs3)cc(Cl)nc2c1Br)NC [Compound 295, 3-bromo-5-chloro-2-[(2R)-2-(methylamino)pent-3-yn-1-yl]-N-(thiophen-2-ylmethyl)furo[3,2-b]pyridin-7-amine] | 0.501 to 5 µM | 0.501 to 5 µM | 0.101 to 0.5 µM
[2H]C([2H])(c1oc2c(NCc3cccs3)cc(Cl)nc2c1Br)[C@@H](N)COC [Compound 304, 2-[(R)-2-amino-3-methoxy(1,1- ^2H2)propyl]-3-bromo-5-chloro-7-thenylamino-1-oxa-4-azaindene] | 1e-05 to 0.1 µM | 1e-05 to 0.1 µM | 1e-05 to 0.1 µM
C[C@H](N)Cc1oc2c(NCc3cccs3)cc(Cl)nc2c1-c1cnco1 [Compound 310] | 0.101 to 0.5 µM | 0.101 to 0.5 µM | 0.101 to 0.5 µM
C[C@H](N)Cc1oc2c(NCc3cccs3)cc(Cl)nc2c1-c1ccco1 [Compound 311, 2-[(S)-2-aminopropyl]-5-chloro-3-(2-furyl)-7-thenylamino-1-oxa-4-azaindene] | 0.501 to 5 µM | 5 to 10 µM | 0.501 to 5 µM

SMILES | IC50 [1] | IC50 (total ATXN3 protein) | EC50 (ATXN3-HiBiT protein)
C[C@H](F)[C@H](N)Cc1oc2c(NCc3cccs3)cc(Cl)nc2c1-c1ncco1 [Compound 312, 2-[(2R,3S)-2-amino-3-fluorobutyl]-5-chloro-3-(1,3-oxazol-2-yl)-7-thenylamino-1-oxa-4-azaindene] | 0.101 to 0.5 µM | 0.101 to 0.5 µM | 1e-05 to 0.1 µM
C[C@H](N)Cc1oc2c(NCc3cccs3)cc(Cl)nc2c1-c1ncc[nH]1 [Compound 313, 2-[(2S)-2-aminopropyl]-5-chloro-3-(1H-imidazol-2-yl)-N-(thiophen-2-ylmethyl)furo[3,2-b]pyridin-7-amine] | 10 to 40 µM | 5 to 10 µM | 10 to 40 µM
C[C@H](N)Cc1oc2c(NCc3cccs3)cc(Cl)nc2c1-c1nccn1C [Compound 314, 2-[(S)-2-aminopropyl]-5-chloro-3-(1-methyl-2-imidazolyl)-7-thenylamino-1-oxa-4-azaindene] | 10 to 40 µM | 10 to 40 µM | 10 to 40 µM
C[C@H](N)Cc1oc2c(NCc3cccs3)cc(Cl)nc2c1-c1ccnn1C [Compound 316, 2-[(S)-2-aminopropyl]-5-chloro-3-(1-methyl-5-pyrazolyl)-7-thenylamino-1-oxa-4-azaindene] | 10 to 40 µM | 10 to 40 µM | 10 to 40 µM
C[C@H](N)Cc1oc2c(NCc3cccs3)cc(Cl)nc2c1-c1ccn(C)n1 [Compound 317, 2-[(S)-2-aminopropyl]-5-chloro-3-(1-methyl-3-pyrazolyl)-7-thenylamino-1-oxa-4-azaindene] | 10 to 40 µM | 10 to 40 µM | 0.501 to 5 µM
C[C@H](N)Cc1oc2c(NCc3cccs3)cc(Cl)nc2c1-c1ccn[nH]1 [Compound 319, 2-[(S)-2-aminopropyl]-5-chloro-3-(5-pyrazolyl)-7-thenylamino-1-oxa-4-azaindene] | 0.501 to 5 µM | 0.501 to 5 µM | 0.501 to 5 µM
Cc1coc(-c2c(C[C@H](C)N)oc3c(NCc4cccs4)cc(Cl)nc23)n1 [Compound 321, 2-[(S)-2-aminopropyl]-5-chloro-3-(4-methyl-1,3-oxazol-2-yl)-7-thenylamino-1-oxa-4-azaindene] | 0.501 to 5 µM | 0.501 to 5 µM | 0.501 to 5 µM
Cc1cnc(-c2c(C[C@H](C)N)oc3c(NCc4cccs4)cc(Cl)nc23)o1 [Compound 322, 2-[(S)-2-aminopropyl]-5-chloro-3-(5-methyl-1,3-oxazol-2-yl)-7-thenylamino-1-oxa-4-azaindene] | 0.501 to 5 µM | 0.501 to 5 µM | 0.501 to 5 µM
C[C@H](N)Cc1oc2c(NCc3cccs3)cc(Cl)nc2c1-c1ccoc1 [Compound 328, 2-[(S)-2-aminopropyl]-5-chloro-3-(3-furyl)-7-thenylamino-1-oxa-4-azaindene] | 10 to 40 µM | 10 to 40 µM | 10 to 40 µM
C[C@H](F)[C@H](N)Cc1oc2c(NCc3cccs3)cc(Cl)nc2c1-c1ccco1 [Compound 331, 2-[(2R,3S)-2-amino-3-fluorobutyl]-5-chloro-3-(2-furyl)-7-thenylamino-1-oxa-4-azaindene] | 0.501 to 5 µM | 0.501 to 5 µM | 0.501 to 5 µM
C[C@H](F)[C@H](N)Cc1oc2c(NCc3cccs3)cc(Cl)nc2c1-c1ccoc1 [Compound 332, 2-[(2R,3S)-2-amino-3-fluorobutyl]-5-chloro-3-(3-furyl)-7-thenylamino-1-oxa-4-azaindene] | 0.501 to 5 µM | 0.501 to 5 µM | 0.501 to 5 µM
C[C@H](F)[C@H](N)Cc1oc2c(NCc3cccs3)cc(Cl)nc2c1-c1ccn(C)n1 [Compound 333, 2-[(2R,3S)-2-amino-3-fluorobutyl]-5-chloro-3-(1-methyl-3-pyrazolyl)-7-thenylamino-1-oxa-4-azaindene] | 0.501 to 5 µM | 0.501 to 5 µM | 5 to 10 µM
C[C@H](F)[C@H](N)Cc1oc2c(NCc3cccs3)cc(Cl)nc2c1-c1ccnn1C [Compound 334, 2-[(2R,3S)-2-amino-3-fluorobutyl]-5-chloro-3-(1-methyl-5-pyrazolyl)-7-thenylamino-1-oxa-4-azaindene] | 10 to 40 µM | 10 to 40 µM | 10 to 40 µM
C[C@H](N)Cc1oc2c(NCc3ccc(F)cc3)cc(Cl)nc2c1Br [Compound 338, 2-[(S)-2-aminopropyl]-3-bromo-5-chloro-7-{[(p-fluorophenyl)methyl]amino}-1-oxa-4-azaindene] | 0.501 to 5 µM | 0.501 to 5 µM | 0.501 to 5 µM
C[C@H](N)Cc1oc2c(NCc3ccccc3F)cc(Cl)nc2c1Br [Compound 340, 2-[(S)-2-aminopropyl]-3-bromo-5-chloro-7-{[(o-fluorophenyl)methyl]amino}-1-oxa-4-azaindene] | 0.501 to 5 µM | 0.501 to 5 µM | 0.501 to 5 µM
